From BindingDB's records for doi:10.7270/Q2NV9GP9 (Burnham Center For Chemical Genomics, 2010) come the findings set out here.

Structures can show the parent of a compound that is named as a salt. Bounds are passed on as bounds.

One assay has as its target T1, Apelin receptor (Homo sapiens, UniProt P35414).
T1 sequence (P35414 whole entry): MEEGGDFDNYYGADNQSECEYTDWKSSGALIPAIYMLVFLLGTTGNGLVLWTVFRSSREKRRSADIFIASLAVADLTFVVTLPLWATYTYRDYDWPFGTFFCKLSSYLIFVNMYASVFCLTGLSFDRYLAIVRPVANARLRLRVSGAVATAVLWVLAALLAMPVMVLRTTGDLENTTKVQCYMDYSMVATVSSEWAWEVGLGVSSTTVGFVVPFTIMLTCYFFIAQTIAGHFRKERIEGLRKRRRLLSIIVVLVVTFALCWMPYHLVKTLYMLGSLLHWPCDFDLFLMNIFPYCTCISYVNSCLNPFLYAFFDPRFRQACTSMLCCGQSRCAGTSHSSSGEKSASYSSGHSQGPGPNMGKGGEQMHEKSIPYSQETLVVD
As to the kind of experiment: APJ agonists inducing beta-arrestin recruitment, dose response, cell-based, luminescence, uHTS hits (AID 488748).
Details: not given
For `Cc1ccc(S(=O)(=O)Nc2nc(-c3ccccc3)cs2)cc1`, the EC50 (as a rule, the concentration needed to bring the measured effect to its halfway point) is over 100 µM.
On the same count and under the same terms, the value for `Cc1cc(C)c2nc(NNC(=O)c3ccc(S(=O)(=O)N4CCc5ccccc5C4)cc3)sc2c1` was over 100 µM; that for `Cc1ccc2nc(C(C#N)=Cc3ccc([N+](=O)[O-])o3)[nH]c2c1` was over 100 µM; that for `CCC(c1nnnn1CCOC)N(Cc1ccc(C)cc1)Cc1cc2cc(OC)ccc2[nH]c1=O` (stereo not given) was over 100 µM.
Turning to `CCC(C)NC(=O)CSC1=Nc2ccccc2C2=NC(CC(=O)NCc3ccc(F)cc3)C(=O)N12` (stereo not given), the 50% effective concentration (EC50) is over 100 µM.
On the same count and under the same terms, then `COc1ccccc1-n1c(SC)nc(O)cc1=O`, with 58.4 µM.
In turn, `CCCCCCC1=Cc2c/c(=C3/NN=C(c4cc(OC)c(OC)c(OC)c4)O3)c(=O)oc2=CC1=O` registered an EC50 of over 100 µM.
With `COc1cc2c(cc1NC(=O)c1cc(-c3ccncc3)nc3ccc(C)cc13)oc1ccccc12`, the concentration for a half-maximal effect (EC50) was over 100 µM.
The same measure, in the same setting: the value for `Cc1cc(C)c2sc(NNC(=O)c3ccc(S(=O)(=O)N4CCc5ccccc5C4)cc3)nc2c1` was over 100 µM; that for `COC/C=C/C1=CC2=CC(=O)C(C)(OC(=O)c3cnc4ccccc4n3)C(=O)C2=CN1c1ccccc1` (stereo not given) was over 100 µM.
`Clc1cccc(CN2CCc3c([nH]c4ccccc34)C2)c1` came in with a concentration for a half-maximal effect (EC50) of over 100 µM.
The same measure, in the same setting: then `COc1ccc(CN=Nc2cc(C)nc3ccc(OC)cc23)c(OC)c1`, with over 100 µM.
Take `CCOc1cc2[nH]c(=S)n(CCCC(=O)NCc3ccccn3)c(=O)c2cc1OCC`: the EC50 is over 100 µM.
Same read-out and setting: then `CCN(CC)CCNC(=O)c1ccc(NC(=O)c2cc(-c3ccco3)nc3ccccc23)cc1`, with over 100 µM; and `CC1CCCCN1S(=O)(=O)c1ccc(C(=O)N(CCCN(C)C)c2nc3ccc(Br)cc3s2)cc1` (stereo not given), with over 100 µM.
The same measure, in the same setting: then `CCOc1ccc2nc(N(CCCN(C)C)C(=O)c3ccc(S(=O)(=O)N4CCc5ccccc5C4)cc3)sc2c1`, with over 100 µM; and `COc1cccc2sc3cc(NCC[C@@H]4CCCN4C)ccc3c(=O)c12`, with over 100 µM.
With `C=CCSc1nc(O)c(CC)c(=O)n1C(C)CC` (stereo not given) [1-butan-2-yl-5-ethyl-6-oxidanyl-2-prop-2-enylsulfanyl-pyrimidin-4-one], a half-maximal effect (EC50) was put at 78.9 µM.
For the compound `CCCSc1nc(O)c(CC)c(=O)n1C(C)CC` (stereo not given) [1-butan-2-yl-5-ethyl-6-oxidanyl-2-propylsulfanyl-pyrimidin-4-one], the concentration for a half-maximal effect (EC50) stood at 56.9 µM. The EC50 values of the last two compounds are within 1.5-fold of each other.
Still for that read-out and setting: the value for `CCC(C)NC(=O)CSC1=Nc2ccccc2C2=NC(CC(=O)NCc3ccccc3)C(=O)N12` (stereo not given) [2-[5-[2-(butan-2-ylamino)-2-oxidanylidene-ethyl]sulfanyl-3-oxidanylidene-2H-imidazo[1,2-c]quinazolin-2-yl]-N-(phenylmethyl)ethanamide] was over 100 µM.
The same measure, in the same setting: then `Clc1ccccc1CSc1nnc(-c2ccncc2)o1` [2-{[(2-chlorophenyl)methyl]sulfanyl}-5-(pyridin-4-yl)-1,3,4-oxadiazole], with over 100 µM; and `CCOc1ccc2nc(O)c(CN(Cc3ccco3)C(CC)c3nnnn3Cc3ccccc3)cc2c1` (stereo not given) [3-({[1-(1-Benzyl-1H-tetrazol-5-yl)-propyl]-furan-2-ylmethyl-amino}-methyl)-6-ethoxy-1H-quinolin-2-one], with over 100 µM; and `CCOc1cc2[nH]c(=S)n(CCC(=O)N3CCc4ccccc4C3)c(=O)c2cc1OCC` [3-[3-(3,4-dihydro-1H-isoquinolin-2-yl)-3-oxidanylidene-propyl]-6,7-diethoxy-2-sulfanylidene-1H-quinazolin-4-one], with over 100 µM.
Same read-out and setting: the value for `CCC(c1nnnn1Cc1ccccc1)N(Cc1cc2cc(OC)ccc2[nH]c1=O)CC1CCCO1` (stereo not given) [3-[[1-(1-benzyltetrazol-5-yl)propyl-(oxolan-2-ylmethyl)amino]methyl]-6-methoxy-1H-quinolin-2-one] was over 100 µM.
`COc1ccc2nc(O)c(C(c3nnnn3CC3CCCO3)N3CCc4ccccc4C3)cc2c1` (stereo not given) [3-{(3,4-Dihydro-1H-isoquinolin-2-yl)-[1-(tetrahydro-furan-2-ylmethyl)-1H-tetrazol-5-yl]-methyl}-6-methoxy-1H-quinolin-2-one] came in with a concentration giving a half-maximal response (EC50) of over 100 µM.
Still for that read-out and setting: then `CCOc1cccc2sc(N(CCCN(C)C)C(=O)c3ccc(S(=O)(=O)N4CCc5ccccc5C4)cc3)nc12` [4-(3,4-dihydro-1H-isoquinolin-2-ylsulfonyl)-N-[3-(dimethylamino)propyl]-N-(4-ethoxy-1,3-benzothiazol-2-yl)benzamide;hydrochloride], with over 100 µM; and `Cn1ncc2c(ON=C(N)c3ccc(C(C)(C)C)cc3)ncnc21` [4-tert-butyl-N'-(1-methylpyrazolo[3,4-d]pyrimidin-4-yl)oxy-benzamidine], with over 100 µM.
On the same count and under the same terms, then `CCOc1cc2[nH]c(=S)n(CCN3CCC(C)CC3)c(=O)c2cc1OCC` [6,7-diethoxy-3-[2-(4-methyl-1-piperidinyl)ethyl]-2-sulfanylidene-1H-quinazolin-4-one], with over 100 µM; and `CC(C)(C)OC(=O)NCCCCCc1cn([C@@H](CO)C(=O)NCCCCCCCCCCC(=O)N2CCN(C(=O)OC(C)(C)C)CC2)nn1` [Boc-KS], with over 100 µM.
Still for that read-out and setting: then `CCCCC1=CC2=CC(=O)C(C)(OC(=O)CC)C(=O)C2=CN1c1ccccc1` (stereo not given) [CMLD003542], with over 100 µM; and `CCCc1cc(C(=O)Nc2sc3c(c2C(=O)OCC)CCCC3)no1` [MLS000116384], with over 100 µM.
`CCOc1cc2[nH]c(=S)n(CCN3CCCCC3CC)c(=O)c2cc1OCC` (stereo not given) [MLS000520831]: the 50% effective concentration (EC50) was over 100 µM.
On the same count and under the same terms, then `CCN1C(c2ccccc2)=C(c2ccccc2)S/C1=C\C=C1/SC(=S)N(C)C1=O` [MLS000526292], with 7.9 µM; and `CC1CCN(S(=O)(=O)c2ccc3nc(-c4ccccn4)cc(C(=O)NCCN(C)Cc4ccccc4)c3c2)CC1` [MLS000682486], with over 100 µM; and `C=CCn1c(SCC(=O)N2CCN(c3ccccc3)CC2)nc2c([nH]c3ccccc32)c1=O` [MLS001236003], with over 100 µM.
Same read-out and setting: then `COc1ccc(OC)c2sc(N(CCCN(C)C)C(=O)c3ccc(S(=O)(=O)N4CCc5ccccc5C4)cc3)nc12` [MLS001239200], with over 100 µM; and `Cc1cc(C)c2sc(N(CCCN(C)C)C(=O)c3ccc(S(=O)(=O)N4CCc5ccccc5C4)cc3)nc2c1` [MLS001239249], with over 100 µM; and `COc1cccc2sc(N(CCCN(C)C)C(=O)c3ccc(S(=O)(=O)N4CCc5ccccc5C4)cc3)nc12` [MLS001239312], with over 100 µM.
Same read-out and setting: then `CCc1ccc2nc(N(CCCN(C)C)C(=O)c3ccc(S(=O)(=O)N4CCc5ccccc5C4)cc3)sc2c1` [MLS001239341], with over 100 µM; and `CCOc1cccc2sc(N(CCCN(C)C)C(=O)c3ccc(S(=O)(=O)N(C)Cc4ccccc4)cc3)nc12` [MLS001239362], with over 100 µM; and `COc1ccc2sc(N(CCCN(C)C)C(=O)c3ccc(S(=O)(=O)N4CCc5ccccc5C4)cc3)nc2c1` [MLS001239377], with over 100 µM.
`Cc1ccc2nc(N(CCCN(C)C)C(=O)c3ccc(S(=O)(=O)N4CCc5ccccc5C4)cc3)sc2c1` [MLS001239478] registered a concentration giving a half-maximal response (EC50) of over 100 µM.

The assay is the same for the next values; noted with them: inactive by the depositor's call.
As for `CCCCC1=CC2=CC(=O)C(C)(OC(=O)CC)C(=O)C2=CN1C1CCCCC1` (stereo not given), the half-maximal effective concentration (EC50) stood at 77.6 µM.
Same read-out and setting: then `Cc1cc(C)n2nc3nc(N4CCCCC4)nc(-c4ccco4)c3c2n1` [4-(2-furyl)-6,8-dimethyl-2-piperidin-1-ylpyrimido[4',5':3,4]pyrazolo[1,5-a]pyrimidine], with 96.6 µM; and `CCc1nnc(NC(=O)CSc2nc3cccnc3n2C2CCCCC2)s1` [MLS000073979], with 45.9 µM.
